Measured values taken from patent EP1026165A1, “O-substituted Hydroxycoumaranone derivatives as antitumor and antimetastatic agents” (Roche Diagnostics GmbH, priority 1999, dated 2000).
pIC50: −log10 of the molar value.

Molecular target: uPAR (Homo sapiens, UniProt Q03405)
Test: BIO-R4 assay (ELISA test): inhibition of uPA binding to its specific receptor uPAR
Details: Inhibition of uPA binding to the specific uPAR receptor (BIO-R4); detection at 405 nm
Protocol: The compounds of the invention were tested (ELISA test) as inhibitors of human urokinase (uPA) binding to its specific receptor uPAR mAk (BIO-R4), according to the procedure described in Biol. Chem. Hoppe-Seyler, 376, 587-94 (1995) by Rettenberger et al. The assays are performed in Microtiterplates (96 wells). The following solutions are used: • washing buffer: PBS-buffer (without Mg^2+ and Ca^2+) + 0.05% Tween 20; • incubation buffer (IP): 1% skimmed milk powder in PBS-buffer (without Mg^2+ and Ca^2+); • BIO-R4 solution: 50 ng/well (0.5 µg/ml 100 µl/well) in IP; • uPAR solution: 3 ng/well (30 ng/ml; 100 µl/well) in PBS-buffer (without Mg^2+ and Ca^2+); • blocking solution: 1% skimmed milk powder in washing buffer (dissolved at 37°C); • uPA solution: 0.25 ng/well (5 ng/ml; 50 µl/well) in IP.
Detection solutions (per microtiterplate):
• (1) 6 ml (100 mM Tris-Cl pH 7.2 + 0.15% Tween 80) + 1.5 ml (10 µg) plasminogen in aqua bidest; • (2) 6 ml (100 mM Tris-Cl pH 7.2 + 0.15% Tween 80) + 1.5 ml (7.5 mg) chromozyme PL in aqua bidest. […]
For detection, the following procedure is used: Incubation with 50 µl each of detection solution (1) and (2) at room temperature. After 20 minutes a yellow colour will be visible (the positive control reads an extinction of 1 after 45-60 minutes). The detection is performed at 405 nm (reference is 490 nm) using a Dynatech MR 7000 ELISA reader. […]

uPAR, sequence (Q03405 23-305 limits assumed): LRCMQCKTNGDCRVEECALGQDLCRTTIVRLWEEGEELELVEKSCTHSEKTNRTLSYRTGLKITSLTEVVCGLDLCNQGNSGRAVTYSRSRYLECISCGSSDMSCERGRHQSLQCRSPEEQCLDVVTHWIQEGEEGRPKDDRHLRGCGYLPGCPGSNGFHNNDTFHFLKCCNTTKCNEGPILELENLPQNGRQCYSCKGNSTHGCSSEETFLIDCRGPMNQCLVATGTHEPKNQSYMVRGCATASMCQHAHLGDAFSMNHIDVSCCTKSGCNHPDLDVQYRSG

pIC50 | SMILES
5.85 | CC(C)=C1Oc2cccc(OCc3cccc(CN4CCC(NC(=O)c5ccc(Cl)c(Cl)c5)CC4)c3)c2C1=O [Example 11, 4-{3-[4-(3,4-dichlorobenzamido)piperidinomethyl]phenylmethoxy}-2-isopropylidenecoumaran-3-one]
5.75 | CC(C)=C1Oc2cccc(OCC#CCN3CCC(NC(=O)c4ccc(Cl)c(S(N)(=O)=O)c4)CC3)c2C1=O [Example 4, 4-{4-[4-(3-aminosulfonyl-4-chlorobenzamido)piperidino]but-2-ynoxy}-2-isopropylidenecoumaran-3-one]
